Laboratory results published in ChEMBL document CHEMBL4665874, “The splicing modulator sulfonamide indisulam reduces AR-V7 in prostate cancer cells” (2020).
Activity calls are given as the source filed them. The rule behind the calls is not given here.

Columns and labels:
[1] = target: T1, RNA-binding protein 39 (Homo sapiens) (UniProt Q14498); assay: Induction of RBM39 degradation in human VCaP cells assessed as AR splicing modulation by measuring reduction in AR-V7 splice variant mRNA transcript level incubated for 24 hrs in presence of AR antagonist MDV by RT-qPCR analysis; format: cell-based
T1 sequence (whole entry): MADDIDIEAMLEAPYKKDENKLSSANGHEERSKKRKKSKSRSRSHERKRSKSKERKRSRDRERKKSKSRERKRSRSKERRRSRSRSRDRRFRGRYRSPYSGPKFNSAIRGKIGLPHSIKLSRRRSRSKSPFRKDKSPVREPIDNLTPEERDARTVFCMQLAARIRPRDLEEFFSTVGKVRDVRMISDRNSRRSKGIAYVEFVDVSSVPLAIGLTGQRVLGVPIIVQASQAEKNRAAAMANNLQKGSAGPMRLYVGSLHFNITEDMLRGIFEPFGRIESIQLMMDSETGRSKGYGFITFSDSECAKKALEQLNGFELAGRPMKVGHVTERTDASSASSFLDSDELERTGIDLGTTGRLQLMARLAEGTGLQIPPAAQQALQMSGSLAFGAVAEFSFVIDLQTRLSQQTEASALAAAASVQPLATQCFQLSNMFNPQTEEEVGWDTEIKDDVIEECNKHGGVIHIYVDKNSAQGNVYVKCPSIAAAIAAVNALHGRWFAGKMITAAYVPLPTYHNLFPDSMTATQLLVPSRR

[2] = test system: VCaP; assay: Antiproliferative activity against human VCaP cells assessed as reduction in cell viability at 1 to 10 uM after 14 days in presence of AR antagonist MDV by Celltiter-Glo luminescence assay; format: functional, cell-based; settings: dose microM 1-10, time 14.0 day
[3] = test system: VCaP; assay: Antitumor activity against human VCaP cells xenografted in NSG mouse assessed as tumor volume at 10 mg/kg, po co-administered with 25 mg/kg AR antagonist MDV via gavage with 5 days on and 2 days off dosing schedule for 6 weeks and measured bi-weekly for 6 weeks (reference value: 698.9 +/-286.5 […]); format: functional
[4] = target: T1, RNA-binding protein 39 (Homo sapiens); assay: Induction of RBM39 degradation in human VCaP cells assessed as reduction in AR-V7 protein expression preincubated for 24 hrs with DHT followed by wash-out and incubated with compound for 24 hrs in presence of AR antagonist MDV by western blot analysis; format: cell-based
[5] = target: T1, RNA-binding protein 39 (Homo sapiens); assay: Induction of RBM39 degradation in human VCaP cells assessed as reduction in RBM39 protein expression at 10 uM preincubated for 24 hrs with DHT followed by wash-out and incubated with compound for 24 hrs in presence of AR antagonist MDV by western blot analysis; format: cell-based
[6] = test system: Mus musculus; assay: Reduction in RBM39 level in tumor lysates of NSG mouse xenografted with human VCaP cells at 10 mg/kg, po co-administered with 25 mg/kg AR antagonist MDV via gavage with 5 days on and 2 days off dosing schedule for 6 weeks by immunoblot analysis; format: functional, organism-based; settings: Neoplasm
[7] = test system: Mus musculus; assay: Reduction in RBM39 level in tumor lysates of NSG mouse xenografted with human VCaP cells at 10 mg/kg, po administered via gavage with 5 days on and 2 days off dosing schedule for 6 weeks by immunoblot analysis; format: functional, organism-based; settings: Neoplasm
[8] = test system: VCaP; assay: Effect on full-length AR mRNA level in human VCaP cells at 10 uM after 24 hrs by RT-qPCR analysis; format: functional, cell-based
[9] = target: T1, RNA-binding protein 39 (Homo sapiens); assay: Induction of RBM39 degradation in human VCaP cells assessed as reduction in RBM39 protein expression preincubated for 24 hrs with DHT followed by wash-out and incubated with compound for 24 hrs in presence of AR antagonist MDV by western blot analysis; format: cell-based
[10] = test system: Mus musculus; assay: Reduction in total AR isoforms in tumor lysates of NSG mouse xenografted with human VCaP cells at 10 mg/kg, po co-administered with 25 mg/kg AR antagonist MDV via gavage with 5 days on and 2 days off dosing schedule for 6 weeks by immunoblot analysis; format: functional, organism-based; settings: Neoplasm
[11] = test system: Mus musculus; assay: Reduction in AR-V7 level in tumor lysates of NSG mouse xenografted with human VCaP cells at 10 mg/kg, po co-administered with 25 mg/kg AR antagonist MDV via gavage with 5 days on and 2 days off dosing schedule for 6 weeks by immunoblot analysis; format: functional, organism-based; settings: Neoplasm
[12] = test system: VCaP; assay: Antitumor activity against human VCaP cells xenografted in NSG mouse assessed as tumor volume at 10 mg/kg, po administered via gavage with 5 days on and 2 days off dosing schedule for 6 weeks and measured bi-weekly for 6 weeks; format: functional
[13] = test system: VCaP; assay: Recovery of DHT-suppressed full length AR mRNA expression in human VCaP cells at 10 uM preincubated for 24 hrs with DHT followed by wash-out and then incubated with compound for 24 hrs by RT-qPCR analysis; format: functional, cell-based
[14] = test system: Mus musculus; assay: Reduction in AR-V7 level in tumor lysates of NSG mouse xenografted with human VCaP cells at 10 mg/kg, po administered via gavage with 5 days on and 2 days off dosing schedule for 6 weeks by immunoblot analysis; format: functional, organism-based; settings: Neoplasm
[15] = test system: VCaP; assay: Effect on MDV-induced recovery of DHT-suppressed full length AR mRNA expression in human VCaP cells at 10 uM preincubated for 24 hrs with DHT followed by wash-out and then incubated with compound for 24 hrs in presence of AR antagonist , MDV by RT-qPCR analysis; format: functional, cell-based
[16] = test system: Mus musculus; assay: Reduction in total AR isoforms in tumor lysates of NSG mouse xenografted with human VCaP cells at 10 mg/kg, po administered via gavage with 5 days on and 2 days off dosing schedule for 6 weeks by immunoblot analysis; format: functional, organism-based; settings: Neoplasm
[17] = target: T2, Androgen receptor (Homo sapiens) (UniProt P10275); assay: Antagonist activity at AR in human VCaP cells assessed as upregulation of DHT-suppressed AR-V7 mRNA transcript level at 10 uM preincubated for 24 hrs with DHT followed by wash-out and then incubated with compound for 24 hrs by RT-qPCR analysis; format: cell-based
T2 sequence (whole entry): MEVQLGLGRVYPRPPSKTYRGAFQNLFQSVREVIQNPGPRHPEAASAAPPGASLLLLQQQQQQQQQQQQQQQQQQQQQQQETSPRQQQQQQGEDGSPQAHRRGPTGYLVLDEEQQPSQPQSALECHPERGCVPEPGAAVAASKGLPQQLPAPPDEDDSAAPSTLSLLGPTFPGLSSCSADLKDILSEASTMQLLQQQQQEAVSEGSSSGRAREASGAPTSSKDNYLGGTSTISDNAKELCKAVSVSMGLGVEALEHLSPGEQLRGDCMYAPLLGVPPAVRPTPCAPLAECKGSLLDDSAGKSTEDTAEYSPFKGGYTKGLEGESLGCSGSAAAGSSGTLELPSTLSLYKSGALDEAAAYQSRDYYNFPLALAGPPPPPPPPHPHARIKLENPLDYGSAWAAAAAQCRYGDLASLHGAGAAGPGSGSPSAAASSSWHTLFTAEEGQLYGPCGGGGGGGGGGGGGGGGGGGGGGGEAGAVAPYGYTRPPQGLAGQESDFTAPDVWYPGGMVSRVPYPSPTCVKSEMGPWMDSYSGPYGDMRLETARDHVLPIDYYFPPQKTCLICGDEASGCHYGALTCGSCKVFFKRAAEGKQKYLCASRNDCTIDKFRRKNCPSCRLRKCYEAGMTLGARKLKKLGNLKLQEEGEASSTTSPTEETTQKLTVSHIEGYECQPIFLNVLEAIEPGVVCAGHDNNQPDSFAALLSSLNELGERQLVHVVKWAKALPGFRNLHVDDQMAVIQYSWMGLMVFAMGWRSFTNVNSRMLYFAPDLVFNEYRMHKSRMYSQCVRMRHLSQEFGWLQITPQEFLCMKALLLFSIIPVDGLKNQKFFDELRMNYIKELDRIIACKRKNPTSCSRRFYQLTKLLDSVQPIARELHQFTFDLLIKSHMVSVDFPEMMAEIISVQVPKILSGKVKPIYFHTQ

With NS(=O)(=O)c1ccc(S(=O)(=O)Nc2cccc3c(Cl)c[nH]c23)cc1 [INDISULAM] the Activity [1] was “Dose-dependent effect”, the Activity [2] was “Active” and the Activity [3] was 409 mm3. For the same molecule, the Activity [4] was “Dose-dependent effect”, the Activity [5] was “Active” and the inhibition [6] was “inactive”. For the same molecule, the inhibition [7] was “Active”, the Activity [8] was “inactive” and the Activity [9] was “Dose-dependent effect”. The inhibition [10] was “Active”, the inhibition [11] was “Active” and the Activity [12] was 152 mm3. The Activity [13] was “Active”, the inhibition [14] was “Active” and the Activity [15] was “inactive”. The inhibition [16] was “Active” and the Activity [17] was “inactive”.
